Reference: patent publication US8900880B2, “Viral citrullinated peptides and uses thereof” (Toscana Biomarkers S.R.L., priority 2009, dated 2014)
Entries after “also recorded” stand apart in the source; their conditions may differ. Like-named read-outs stand apart in the source and are kept apart here. Where no end group is shown, it is not given here. [ ]: non-standard residue; d: D form. Cit = NC(=O)NCCC[C@H](N)C(=O)O

What was measured:
[1] = tested on: anti-VCP1 antibodies in RA and control sera; conditions: cited from earlier work
[2] = tested on: autoantibodies in RA sera; test: 79 RA patients tested for anti-CCP2, anti-CCP3, anti-VCP1 and anti-VCP2 (FIG. 1); format: binding, human
From the text: FIG. 1. […] The presence of different populations of autoantibodies is depicted in the block diagram. Number of RA sera positive (+) or negative (−) to anti-CCP2, anti-CCP3, anti-VCP1 [peptide of formula (VI)], and anti-VCP2 [peptide of formula (V)] are shown above the diagram.
Noteworthy, 7/79 (9%) anti-CCP2 and anti-CCP3 negative sera are positive to the peptide of formula (VI); 2/79 (3%) anti-CCP2 and anti-CCP3 negative sera are positive to peptide of formula (V); 1/79 (1%) anti-CCP2 and anti-CCP3 negative serum is positive to both peptides of formula (V) and formula (VI). Thus, formula (V) and (VI) allow to detect antibodies in a subgroup of anti-CCP negative RA patients (FIG. 1).

[3] = tested on: anti-CP IgG antibodies in RA patients' serum; conditions: 100 RA patients; IgG; cut-off 97.5th percentile of normal controls
Method: The ability to recognize specific antibodies in RA patients by MAP of formula (V), in comparison with the MAP of formula (VI) was evaluated by ELISA.
MAP of formula (V) and MAP of formula (VI) were diluted respectively to a concentration of 20 μg/ml and 5 μg/ml in PBS, loaded into the wells of a polystyrene micro-titration plate (50 μl/well), and left overnight at +4° C. Upon completion of the coating period, the wells were treated for 1 hour at RT with 3% BSA in PBS. The patients' serum samples (diluted 1:200 in a buffer constituted by 1% BSA, 0.05% Tween X-100 in PBS) were then loaded onto the plate (50 μl/well) and left to incubate for 3 hours at RT. After the incubation period, one washing was performed with 1% PBS Tween X-100 and two washings were performed with PBS (150 μl/well). An anti human-IgG antibody conjugated to the enzyme alkaline phosphatase (50 μl/well), diluted 1:3000 in 1% PBS BSA, 0.05% Tween X-100, was incubated for 3 hours at RT with stirring. Upon completion of the incubation, after three washings as described above, p-nitrophenyl phosphate was added to the wells and the absorbance at a wavelength of 405 nm was determined. The results of the test were expressed as the percentage of positivity, calculated by dividing the absorbance of each serum sample by the absorbance of a positive serum sample the value of which was set arbitrarily at 100.
Serum samples of 100 patients suffering from RA were tested by this method.

anti-SmD1 IgG antibodies = conditions: cited from earlier work
[4] = tested on: IgG antibodies in RA and NHS sera; test: ELISA with differently citrullinated EBNA-2(338-358) peptides (Example 6); format: binding, human; conditions: for NHS positive sera: 23 normal healthy subjects; for NHS positive sera / RA positive sera: positive = greater than 97.5th percentile of normal control group; for RA positive sera: 24 RA patients; for reactivity with RA sera (in words): 24 RA sera, relevant = more than 25% positive
From the text: The role of the number and of the position of citrullines inside EBNA-2(338-358) sequence in the detection of specific antibodies in RA sera was investigated by means of differently citrullinated peptides (Table 1).
It is believed that these two positions relate to two different antigenic regions.

[5] = tested on: anti-VCP2 antibodies (IgG) from RA sera; test: ELISA of affinity-purified anti-VCP2 antibodies from RA sera (Example 5); format: binding, human; conditions: four preparations from 4 different RA sera
Method: FIG. 4. Isolation of anti-VCP2 antibodies from RA sera was performed according to the method described in example 4.
A citrullinated peptide or MAP according to the present invention was conjugated to CNBr-activated sepharose according to standard procedures known by one skilled in the art. Total immunoglobulins from sera containing anti-CP antibodies were precipitated with 50% saturated ammonium sulfate; the precipitates were dissolved in phosphate buffer (pH 7.4) and dialyzed overnight against PBS. Enriched immunoglobulin preparations were applied to the column, and the flowthrough was collected for subsequent analysis. The column was extensively washed with 20 mM Na2HPO4, 150 mM NaCl (pH 7.2), and the antibodies bound to the column were eluted by 0.1 M glycine buffer (pH 2.8) (0.5 ml/fraction), immediately neutralized with 50 μl Tris 1M (pH 8.0), and dialyzed overnight against PBS. The anti-CP antibody content in the eluates and flowthrough was tested by ELISA.

[6] = WO2004087747, MAP as coating antigen

Substance | NHS positive sera [4] | RA positive sera [4] | other results
(G G D N H G Cit G Cit G Cit G Cit G Cit G G G Cit P G A P G)4 K2 K beta-Alanine [VCP1] |  |  | anti-VCP1 antibodies found in RA sera ([1]; Anzilotti et al. 2006, 300 RA patients): 45%; anti-VCP1 antibodies found in controls ([1]; Anzilotti et al. 2006, 327 controls): less than 5%; antibodies detected in RA sera ([1]; Pratesi et al. 2006): 50%; antibodies detected in normal and disease control sera ([1]; Pratesi et al. 2006): less than 5%; antibodies detected in RA sera [1, 6]: 45%; specificity [1, 6]: 95%; RA sera containing antibodies reacting with either one of the two MAP ([2]; comparison of MAP of formula (V) and MAP of formula (VI)): 15%; anti-CCP2 and anti-CCP3 negative sera positive to the peptide ([2]; of 79 RA patients): 9%; anti-CCP2 and anti-CCP3 negative serum positive to both peptides ([2]; of 79 RA patients (1/79)): 1%; positive RA sera ([2]; population of 79 RA patients): 62%; anti-CP MAP antibodies found in the RA cohort [3]: 47%
EBNA-2(354-373): non deiminated sequence EBNA2(354-373) of Incaprera et al. |  |  | IgG detection in IM and SLE sera (anti-SmD1 IgG antibodies; Incaprera et al. 1998): detection of IgGs; antibody recognition (anti-SmD1 IgG antibodies; systemic lupus erythematosus autoimmunity): recognizes anti-SmD1 IgG antibodies
GQSCitGQSCitGRGCitGRGRGRGKG (GQS[Cit]GQS[Cit]GRG[Cit]GRGRGRGKG) | 1/23 | 12/24 | reactivity with RA sera (in words) [4]: most active peptide in this series
GQSCitGQSCitGRGRGRGRGRGKG (GQS[Cit]GQS[Cit]GRGRGRGRGRGKG) [[Cit^341, Cit^345]EBNA2(338-358)] | 0/23 | 12/24 | 
GQSCitGQSRGRGRGCitGRGRGKG (GQS[Cit]GQSRGRGRG[Cit]GRGRGKG; not fully specified) [[Cit^341, Cit^349]EBNA2(338-358)] | 0/23 | 6/24 | 
GQSCitGQSRGRGRGRGRGCitGKG (GQS[Cit]GQSRGRGRGRGRG[Cit]GKG) [[Cit^341, Cit^355]EBNA2(338-358)] | 1/23 | 8/24 | 
GQSCitGQSRGRGRGRGRGRGKG (GQS[Cit]GQSRGRGRGRGRGRGKG) [[Cit^341]EBNA2(338-358)] | 1/23 | 4/24 | 
GQSRGQSCitGCitGCitGRGRGRGKG (GQSRGQS[Cit]G[Cit]G[Cit]GRGRGRGKG) [[Cit345, Cit^347, Cit^349]EBNA2(338-358)] | 1/23 | 9/24 | 
GQSRGQSCitGCitGRGRGRGRGKG (GQSRGQS[Cit]G[Cit]GRGRGRGRGKG) [[Cit^345, Cit^347]EBNA2(338-358)] | 1/23 | 10/24 | 
GQSRGQSCitGRGCitGCitGRGRGKG (GQSRGQS[Cit]GRG[Cit]G[Cit]GRGRGKG) | 1/23 | 8/24 | 
GQSRGQSCitGRGCitGRGCitGRGKG (GQSRGQS[Cit]GRG[Cit]GRG[Cit]GRGKG) | 1/23 | 10/24 | 
GQSRGQSCitGRGCitGRGRGCitGKG (GQSRGQS[Cit]GRG[Cit]GRGRG[Cit]GKG) | 0/23 | 8/24 | 
GQSRGQSCitGRGCitGRGRGRGKG (GQSRGQS[Cit]GRG[Cit]GRGRGRGKG) [[Cit^345, Cit^349]EBNA2(338-358)] | 0/23 | 15/24 | reactivity with RA sera (in words) [4]: most active and selective di-citrullinated peptide
GQSRGQSCitGRGRGCitGRGRGKG (GQSRGQS[Cit]GRGRG[Cit]GRGRGKG) [[Cit^345, Cit^351]EBNA2(338-358)] | 1/23 | 12/24 | 
GQSRGQSCitGRGRGRGCitGRGKG (GQSRGQS[Cit]GRGRGRG[Cit]GRGKG) [[Cit^345, Cit^353]EBNA2(338-358)] | 2/23 | 6/24 | 
GQSRGQSCitGRGRGRGRGCitGKG (GQSRGQS[Cit]GRGRGRGRG[Cit]GKG) [[Cit^345, Cit^355]EBNA2(338-358)] | 0/23 | 11/24 | 
GQSRGQSCitGRGRGRGRGRGKG (GQSRGQS[Cit]GRGRGRGRGRGKG) [[Cit^345]EBNA2(338-358)] | 1/23 | 9/24 | 
GQSRGQSRGCitGRGCitGRGRGKG (GQSRGQSRG[Cit]GRG[Cit]GRGRGKG; not fully specified) [[Cit^347, Cit^349]EBNA2(338-358)] | 1/23 | 5/24 | 
GQSRGQSRGCitGRGRGRGRGKG (GQSRGQSRG[Cit]GRGRGRGRGKG) [[Cit^347]EBNA2(338-358)] | 1/23 | 6/24 | 
GQSRGQSRGRGCitGCitGRGRGKG (GQSRGQSRGRG[Cit]G[Cit]GRGRGKG) [[Cit^349, Cit^351]EBNA2(338-358)] | 2/23 | 15/24 | reactivity with RA sera (in words) [4]: very active; specificity and selectivity (in words) ([4]; RA versus NHS sera): less specific and selective
GQSRGQSRGRGCitGRGRGRGKG (GQSRGQSRGRG[Cit]GRGRGRGKG) [[Cit^349]EBNA2(338-358)] | 1/23 | 9/24 | 
GQSRGQSRGRGRGCitGCitGRGKG (GQSRGQSRGRGRG[Cit]G[Cit]GRGKG; not fully specified) [[Cit^349, Cit^353]EBNA2(338-358)] | 0/23 | 12/24 | 
GQSRGQSRGRGRGCitGRGCitGKG (GQSRGQSRGRGRG[Cit]GRG[Cit]GKG; not fully specified) [[Cit^349, Cit^355]EBNA2(338-358)] | 0/23 | 9/24 | 
GQSRGQSRGRGRGCitGRGRGKG (GQSRGQSRGRGRG[Cit]GRGRGKG) [[Cit^351]EBNA2(338-358)] | 1/23 | 6/24 | 
GQSRGQSRGRGRGRGCitGRGKG (GQSRGQSRGRGRGRG[Cit]GRGKG) [[Cit^353]EBNA2(338-358)] | 0/23 | 6/24 | 
GQSRGQSRGRGRGRGRGCitGKG (GQSRGQSRGRGRGRGRG[Cit]GKG) [[Cit^355]EBNA2(338-358)] | 2/23 | 3/24 | 
GQSRGQSRGRGRGRGRGRGKG [EBNA2(338-358), reference compound] | 0/23 | 3/24 | reactivity of purified anti-VCP2 IgG with the antigen [5]: no binding; reactivity with RA sera (in words) [4]: does not react with RA sera; also recorded: does not recognize IgG antibodies in a relevant number of RA sera
